{"source": "PubChem BioAssay AID1963448", "about": "(Molecular Pharmacology Branch, DTP, NCI, 2024)", "test_system": "616215-338-R-J1-PDC complex spheroid growth, % test/control", "test": "Anticancer human tumor 616215-338-R-J1-PDC patient-derived colon adenocarcinoma cell line growth inhibition [Asc]", "settings": "for IC50: curve of first compound; for viability, T/C: stronger effect = lower value", "procedure": "Multicellular complex tumor spheroid response to apoptosis pathway targeting inhibitors Alrizomadlin, Pelcitoclax, and Dasminapant in combination with a variety of drugs and investigational agents in selected tumor cell lines\nThe MDM2 inhibitor alrizomadlin, the Bcl-2/Bcl-xL inhibitor pelcitoclax, and the IAPs inhibitor dasminapant were evaluated both individually and in combination with standard of care and investigational anticancer small molecules within a complex spheroid model of solid tumors. . Complex spheroids include a stromal component modeled by human endothelial cells (HUVEC) and fibroblasts modeled by human mesenchymal stem cells (MSCs). The concentration ranges selected for each drug and investigational agent were based upon clinically achievable concentrations if the clinical Cmax of the agent was known.\nCompounds. The drugs and investigational agents: alrizomadlin (APG-115; NSC831270), pelcitoclax (APG-1252; NSC835773), dasminapant (APG-1387;NSC834197), TAK-243 (NSC785004), copanlisib (NSC809693), olaparib (NSC753686), talazoparib (NSC767125), cobimetinib (NSC 768068), eltanexor (KPT-8602, NSC 794443), abemaciclib (NSC 768073), sotorasib (NSC818433), adagrasib (NSC 831453), MRTX-1133 (NSC 836407), Iadademestat (ORY1001, NSC 806812), and RMC-4630 (NSC839698), were obtained from the NCI Developmental Therapeutics Program Chemical Repository. The FDA-approved anticancer drug set is available from the Developmental Therapeutics Program at https://dtp.cancer.gov/organization/dscb/obtaining/available plates.htm. […] The stock solutions were prepared in dimethyl sulfoxide (DMSO, Sigma-Aldrich, St. Louis, MO, cat. D2650) at 800-fold the tested concentration and stored at -70 degrees C prior to their use. All drugs and investigational agents were tested over a range starting from a high concentration at or near the clinical Cmax and decreasing in half-log increments. If the clinical Cmax for an agent had not been determined, the highest concentration tested was 10 microM.\nThe patient-derived cancer (PDC) cell lines include five colon adenocarcinomas: 186277-243-T-J2-PDC, 616215-338-R-J1-PDC, 439559-082-T-J2-PDC, 463943-066-T-J2-PDC, and 519858-162-T-J1-PDC; three pancreatic carcinomas: 323965-272-R-J2-PDC, 521955-158-R6-J3-PDC, and 521955-158-R2-J5-PDC; two uterine sarcomas: 327498-152-R-J2-PDC and 993429-296-R-J1-PDC; two rhabdomyosarcomas: 755483-174-R-J1-PDC and 772245-204-R-J1-PDC; two soft tissue sarcomas: 126254-015-R-J1-PDC and 494315-158-R-J1-PDC; two malignant fibrous histiocytomas: 317291-083-R-J1-PDC and 596521-263-R-J1-PDC; two breast carcinomas: 171881-019-R-J1-PDC and 885512-296-R-J2-PDC; and one ovarian carcinoma: 6556581-035-R-J-PDC were obtained from the NCI PDMR, (https://pdmr.cancer.gov). The established cell lines HSSY-2 synovial sarcoma (RRID:CVCL 8719), SYO-1 synovial sarcoma (RRID:CVCL_7146), MPNST malignant peripheral neural sheath tumor were obtained from the Sloan Kettering Institute. The following established cell lines were purchased from the American Type Culture Collection (ATCC, Manassas, VA), Sor the received from the NCI repository:, PANC-1 pancreatic carcinoma (CRL-1469, RRID:CVCL_0480), OVCAR-5 ovarian carcinoma (RRID:CVCL_1628), OVCAR-8 ovarian carcinoma (RRID:CVCL_1629), , MCF-7 breast carcinoma (CRL-12584, RRID:CVCL_0031), MDA-MB-231 breast carcinoma (CRL-12532, RRID:CVCL_0062), NCI-H1876 small cell lung carcinoma (CRL-5902, RRID:CVCL_1503), NCI-H510A small cell lung carcinoma (HTB-184, RRID:CVCL_1565), NCI-H1417 (CRL-5869, RRID:CVCL_1469), and NCI-H196 small cell lung carcinoma (CRL-5823, RRID:CVCL_1509). Dr. Peter Houghton (Greehey Children's Cancer Research Institute, University of Texas Health Science Center, San Antonio, TX) provided Rh-18 rhabdomyosarcoma (RRID:CVCL_1659). Pooled donor human umbilical vein endothelial cells (HUVEC, Lonza, cat. CC-2519) and human mesenchymal stem cells (hMSC, Lonza, cat. PT-2501) were purchased from Lonza (Walkersville, MD).\nCell Culture. […]"}
{"compound": "C=CC(=O)N1CCN(c2nc(=O)n(-c3c(C)ccnc3C(C)C)c3nc(-c4c(O)cccc4F)c(F)cc23)C(C)C1", "note": "(stereo not given) + Cc1c(S(C)(=O)=O)c(-c2cc(F)cc(N3CCN(c4ccc(NS(=O)(=O)c5ccc(NC(CCN6CCC(C(=O)OCCCP(=O)(O)O)CC6)CSc6ccccc6)c(S(=O)(=O)C(F)(F)F)c5)cc4)CC3)c2)c(-c2ccc(Cl)cc2)n1C(C)C;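 also: spheroids exposed to agents for seven days before readout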;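 as to viability, T/C: 100% = DMSO vehicle control viability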", "values": [{"measurement": "IC50", "setting": "second compound 0.1 µM", "result": "> 10", "unit": "µM"}, {"measurement": "IC50", "setting": "second compound 0.316 µM", "result": "> 10", "unit": "µM"}, {"measurement": "IC50", "setting": "second compound 1 µM", "result": 2.35, "unit": "µM"}, {"measurement": "IC50", "setting": "second compound 3.16 µM", "result": "< 0.0316", "unit": "µM"}, {"measurement": "IC50", "setting": "second compound 10 µM", "result": "< 0.0316", "unit": "µM"}, {"measurement": "viability, T/C", "setting": "second compound 0.1 µM, first compound 0.0316 µM", "result": 87.5, "unit": "%"}, {"measurement": "viability, T/C", "setting": "second compound 0.1 µM, first compound 0.1 µM", "result": 89.8, "unit": "%"}, {"measurement": "viability, T/C", "setting": "second compound 0.1 µM, first compound 0.316 µM", "result": 90.4, "unit": "%"}, {"measurement": "viability, T/C", "setting": "second compound 0.1 µM, first compound 1 µM", "result": 92.9, "unit": "%"}, {"measurement": "viability, T/C", "setting": "second compound 0.1 µM, first compound 3.16 µM", "result": 87.5, "unit": "%"}, {"measurement": "viability, T/C", "setting": "second compound 0.1 µM, first compound 10 µM", "result": 88.3, "unit": "%"}, {"measurement": "viability, T/C", "setting": "second compound 0.316 µM, first compound 0.0316 µM", "result": 87.7, "unit": "%"}, {"measurement": "viability, T/C", "setting": "second compound 0.316 µM, first compound 0.1 µM", "result": 86.9, "unit": "%"}, {"measurement": "viability, T/C", "setting": "second compound 0.316 µM, first compound 0.316 µM", "result": 84.5, "unit": "%"}, {"measurement": "viability, T/C", "setting": "second compound 0.316 µM, first compound 1 µM", "result": 92.1, "unit": "%"}, {"measurement": "viability, T/C", "setting": "second compound 0.316 µM, first compound 3.16 µM", "result": 83.4, "unit": "%"}, {"measurement": "viability, T/C", "setting": "second compound 0.316 µM, first compound 10 µM", "result": 64.4, "unit": "%"}, {"measurement": "viability, T/C", "setting": "second compound 1 µM, first compound 0.0316 µM", "result": 67.6, "unit": "%"}, {"measurement": "viability, T/C", "setting": "second compound 1 µM, first compound 0.1 µM", "result": 74.5, "unit": "%"}, {"measurement": "viability, T/C", "setting": "second compound 1 µM, first compound 0.316 µM", "result": 68, "unit": "%"}, {"measurement": "viability, T/C", "setting": "second compound 1 µM, first compound 1 µM", "result": 61.6, "unit": "%"}, {"measurement": "viability, T/C", "setting": "second compound 1 µM, first compound 3.16 µM", "result": 45.9, "unit": "%"}, {"measurement": "viability, T/C", "setting": "second compound 1 µM, first compound 10 µM", "result": 42, "unit": "%"}, {"measurement": "viability, T/C", "setting": "second compound 3.16 µM, first compound 0.0316 µM", "result": 36, "unit": "%"}, {"measurement": "viability, T/C", "setting": "second compound 3.16 µM, first compound 0.1 µM", "result": 40.6, "unit": "%"}, {"measurement": "viability, T/C", "setting": "second compound 3.16 µM, first compound 0.316 µM", "result": 37.9, "unit": "%"}, {"measurement": "viability, T/C", "setting": "second compound 3.16 µM, first compound 1 µM", "result": 30.2, "unit": "%"}, {"measurement": "viability, T/C", "setting": "second compound 3.16 µM, first compound 3.16 µM", "result": 22.3, "unit": "%"}, {"measurement": "viability, T/C", "setting": "second compound 3.16 µM, first compound 10 µM", "result": 17.7, "unit": "%"}, {"measurement": "viability, T/C", "setting": "second compound 10 µM, first compound 0.0316 µM", "result": 24.9, "unit": "%"}, {"measurement": "viability, T/C", "setting": "second compound 10 µM, first compound 0.1 µM", "result": 26.2, "unit": "%"}, {"measurement": "viability, T/C", "setting": "second compound 10 µM, first compound 0.316 µM", "result": 21.9, "unit": "%"}, {"measurement": "viability, T/C", "setting": "second compound 10 µM, first compound 1 µM", "result": 20, "unit": "%"}, {"measurement": "viability, T/C", "setting": "second compound 10 µM, first compound 3.16 µM", "result": 17.5, "unit": "%"}, {"measurement": "viability, T/C", "setting": "second compound 10 µM, first compound 10 µM", "result": 5.58, "unit": "%"}]}
